Source: patent US20230203554A1, “PROCESS FOR REDUCING UNWANTED CULTURE BYPRODUCTS IN CELL CULTURE MEDIUM” (SAMSUNG BIOEPIS CO., LTD., priority 2016, published 2023)

What was measured:
[1] = test system: CHO cells; assay: Cell viability, Trypan blue exclusion method (Cedex HiRes), Examples 3 and 4; assay type: cell-based, Chinese hamster; conditions: for cell viability: 14 days after the culture
Experimental: (§1) Cells were prepared using the same method as that used in Example 1, and a glutamine-free and 2×HT-containing medium was added to the prepared cells. 4 mM of uridine (catalog No.: U3003, Sigma) or 8 mM of galactose (Catalog No.: G0750, Sigma) was added to the medium. The cells were cultured at 37° C. and 5% CO2, and the medium was replaced with a fresh medium every two days. Cells cultured in a glutamine-free medium were used as a negative control.
(§2) After about 14 days, viable cell density and cell viability were measured using a Cedex HiRes analyzer (Model No.: 05650216001, Roche) through a scanner-based imaging method and a Trypan blue exclusion method. The viable cell density (CHO cells/ml) of cells cultured in the presence of uridine and in the presence of galactose is illustrated in FIGS. 5A and 5B, respectively. In addition, the cell viability (%) of cells cultured in the presence of uridine and in the presence of galactose is illustrated in FIGS. 6A and 6B, respectively.
as §1, with “1” for “4”, “magnesium” for “uridine (catalog No.: U3003, Sigma) or 8 mM of galactose”, “M4880,” for “G0750,”
After about 14 days, viable cell density and cell viability were measured using a Cedex HiRes analyzer (Model No.: 05650216001, Roche) through a scanner-based imaging method and a Trypan blue exclusion method, respectively. The viable cell density (CHO cells/ml) and cell viability of the cells cultured in the presence of magnesium are illustrated in FIGS. 7 and 8, respectively.

[2] = test system: CHO cells; assay: Viable cell density, scanner-based imaging (Cedex HiRes), Examples 3 and 4; design: species or system Chinese hamster; conditions: 8 mM galactose added to glutamine-free 2×HT medium; FIG. 5B
Experimental: as §1, §2
Cells were prepared using the same method as that used in Example 1, and a glutamine-free and 2×HT-containing medium was added to the prepared cells. […]
After about 14 days, viable cell density and cell viability were measured using a Cedex HiRes analyzer (Model No.: 05650216001, Roche) through a scanner-based imaging method and a Trypan blue exclusion method, respectively. […]

[3] = test system: Chinese hamster ovary (CHO) cells; conditions: 8 mM ammonia; cited from earlier work

For `O=C[C@H](O)[C@@H](O)[C@@H](O)[C@H](O)CO` [galactose, reference compound], the “cell viability (printed: viable cell density), versus medium without galactose” value ([1]; 8 mM galactose added to glutamine-free 2×HT medium, FIG. 6B) was “no significant difference” and the “viable cell density, versus medium without galactose” value [2] was “no significant difference”.

Compound `O=c1ccn([C@@H]2O[C@H](CO)[C@@H](O)[C@H]2O)c(=O)[nH]1` [uridine] has a cell viability ([1]; 4 mM uridine added to glutamine-free 2×HT medium) of 94.6%.

`[Mg+2]` [magnesium] gave a cell viability ([1]; 1 mM magnesium added to glutamine-free 2×HT medium) of 91.5%.

For `N` [ammonia], the “inhibition of cell growth” value [3] is given as 50%.
